According to EP1004309A1, “ISRAPAFANT-CONTAINING WATER-BASE PREPARATIONS” (Senju Pharmaceutical Co., Ltd., priority 1997, dated 1998):
≈ marks a conversion by molar mass, not a printed value. Entries after “also recorded” stand apart in the source; their conditions may differ.

Experiments:
[1] = test system: guinea pig active sensitization allergic conjunctivitis; assay: Suppressive effect against promotion of conjunctival vascular permeability (early phase reaction), dye-leakage; type: in vivo; details: 30 minutes after second challenge
Experimental: (§1) Male Hartley guinea pigs weighing about 300 g purchased from Japan SLC. Ltd. were used. These animals had free access to a solid feed (γ ray irradiated feed LRC4, ORIENTAL YEAST CO., LTD.) and tap water, and were bred in a breeding chamber set to a temperature 23 ±2°C and humidity 55±15%.
(§2) Israpafant (manufactured by Yoshitomi Pharmaceutical Industries, Ltd.) was suspended in a vehicle (pH 5) shown below at a concentration of 1% to give an eye drop suspension. In addition, a suspension of israpafant in 0.5% CMC at 10 mg/ml was prepared for oral administration. As a control, physiological saline was used.
Guinea pigs were sensitized with a dispersion of 10 µg ovalbumin (OA) and 30 mg aluminum hydroxide gel by peritoneal administration. At 14 days after the sensitization, a 2.5% OA antigen solution was instilled into the both eyes by 10 µl to induce allergic conjunctivitis (first challenge). At 20 minutes after the last challenge, conjunctivitis signs were observed and the animals were grouped in such a manner that the severity of the condition was equalized from the degrees of chemosis, conjunctival injection and tearing.
The evaluation of a drug included the following steps. At 24 hours from the first challenge, 10 mg/kg Evans' blue was intravenously administered, and a 2.5% OA antigen solution was instilled into the both eyes by 10 µl to again induce conjunctivitis (the second challenge). Thirty minutes later, conjunctival dye-leakage part was excised, the parts of the both eyes were combined and the amount of the leaked dye was measured. The drug was instilled into the both eyes by 10 µl at 3, 2, 1 hour before the second challenge in the case of administration by instillation. In the case of an oral administration, 10 mg/kg was administered once at 1 hour before the second challenge. For suppression of histamine reaction, 1 mg/kg of mepyramine was intravenously administered one minute before.
(§3) • physiological saline (control group) • 1.0% israpafant (instillation group) • 10 mg/kg israpafant p.o. (oral group) • 1 mg/kg mepyramine i.v. (intravenous injection group) • 1.0% israpafant + 1 mg/kg mepyramine i.v. (concurrent instillation group) • 10 mg/kg israpafant p.o.+1 mg/kg mepyramine i.v. (concurrent instillation group)

[2] = test system: guinea pig active sensitization allergic conjunctivitis; assay: Suppressive effect against eosinophil infiltration into conjunctiva (late phase reaction); type: in vivo
Experimental: as §1, §2
In the same manner as in 1), sensitization and induction by first challenge and second challenge were performed.
The drug was evaluated by removing the eye ball at 6 hours after the second challenge, preparing an optical microscopic specimen according to a conventional method, staining eosinophils by Luna staining, and counting and averaging the number of eosinophils infiltrated into conjunctiva with regard to each of 6 visible areas (one visible area being 0.04 mm^2) of the vicinity of conjunctival lymphoid tissue. The drug was administered in the same manner as in 1).
as §3

[3] = Dissolution test: solubility of israpafant in buffers, by HPLC; type: physicochemical; details: 0.1% acetate, phosphate and borate buffers, 25 °C, aqueous buffer, thermodynamic from solid; each buffer (pH 4, 5, 6, 7, 8 and 9); below detection limit by HPLC
Experimental: Israpafant (manufactured by Yoshitomi Pharmaceutical Industries, Ltd.) was suspended in 0.1% acetate buffer (pH 4, 5, 6), phosphate buffer (pH 6, 7, 8) and borate buffer (pH 8, 9) in a concentration of 0.1% (w/v%, hereinafter the same). Each suspension was filled in a glass ampoule by 5 ml and shaken at 25°C overnight (ca. 15 hours). After passing through a 0.45 µm membrane filter, the solubility of israpafant was measured by HPLC.
(§4) • column: YMC AM-302 (4.6×150 mm) • mobile phase: acetonitrile:0.1M ammonium acetate-87:13 • detection: UV 244 nm • column temperature:35°C • flow rate: 0.7 ml/min • internal standard:1,3,5-triphenylbenzene

[4] = Dissolution test: solubility of israpafant in aqueous solutions containing additives, by HPLC; type: physicochemical; details: for solubility: 0.1% phosphate buffer with dissolved additive, 25 °C, pH 7, aqueous with cosolvent or surfactant or cyclodextrin, thermodynamic from solid
Experimental: In 0.1% phosphate buffer (pH 7) were dissolved the additives shown in Table 2 in a proportion of 0.5% (0.5% and 4% in the sole case of polysorbate). In the same manner as above, israpafant was suspended and dissolved, after which the solubility of israpafant was measured by HPLC.
as §4

Solubility in water = type: physicochemical; details: water at 25°C
[5] = test system: guinea pig active sensitization allergic conjunctivitis; assay: Suppressive effect against immediate allergic conjunctivitis signs (early phase reaction), total score; type: in vivo; details: 1% israpafant instillation 10 µl one eye at 2, 4, 8 hours after first challenge and 3, 2, 1 hour before second challenge; 20 minutes after second challenge; versus physiological saline control
Experimental: as §1, §2
In the same manner as in 1), sensitization and induction by the first challenge and the second challenge were performed. […]

rat PAF conjunctivitis = assay: Rat PAF conjunctivitis, conjunctival dye-leakage after eye drop; type: in vivo; details: for inhibition: dye leakage; for amount of dye leakage: instillation 5 µl at 1, 2 hours before PAF, mean±standard error
Experimental: Male Wistar rats weighing about 130 g purchased from Clea Japan, Inc. were used. They were bred at temperature 23±2°C and humidity 55±15%.
Israpafant was suspended at 0.03, 0.1, 0.3 and 1.0%. Physiological saline was used for the control group.
The formulation of the vehicle for an israpafant eye drop was as shown below, wherein the pH of the eye drop at each concentration was 7.0.
PAF diluted to 4 µg/ml was administered to the upper subconjunctiva of the rat by 25 µl and at the same time, 0.5% Evans' blue (0.5 ml) was intravenously administered. Thirty minutes later, the dye-leakage part of the conjunctiva was excised and the dye was extracted with formamide, after which absorbance (625 nm) was measured. The test drug was administered by instillation (5 µl) to the eye at 1, 2 hours before subconjunctival induction of PAF.

COc1ccc(CN(CCN(C)C)c2ccccn2)cc1 [mepyramine, reference compound]
dye-leakage ([1]; 1 mg/kg mepyramine i.v. one minute before, control 34.5 µg): 17.5 µg/two eye balls
suppressive effect on eosinophil infiltration (in words) ([2]; 1 mg/kg mepyramine i.v., 6 hours after second challenge): suppressive effect

Cc1nnc2n1-c1sc(CCc3ccc(CC(C)C)cc3)cc1C(c1ccccc1Cl)=NC2C (stereo not drawn) [israpafant, 4-(2-Chlorophenyl)-2-[2-(4-isobutylphenyl)ethyl]-6,9-dimethyl-6H-thieno[3,2-f][1,2,4]triazolo[4,3-a][1,4]diazepine]
solubility [3]: < 0.05 µg/mL
solubility ([4]; 0.5% BAK in 0.1% phosphate buffer (pH 7)): 99 µg/mL (≈ 202 µM)
solubility ([4]; 0.5% HCO60 in 0.1% phosphate buffer (pH 7)): 47.3 µg/mL (≈ 96.7 µM)
solubility ([4]; 0.5% HPMC in 0.1% phosphate buffer (pH 7)): 0.6 µg/mL (≈ 1.23 µM)
solubility ([4]; 0.5% PVA(EG40) in 0.1% phosphate buffer (pH 7)): 0.4 µg/mL (≈ 0.818 µM)
solubility ([4]; 0.5% SDS in 0.1% phosphate buffer (pH 7)): 1060 µg/mL (≈ 2160 µM)
solubility ([4]; 0.5% Tyloxapol in 0.1% phosphate buffer (pH 7)): 29.5 µg/mL (≈ 60.3 µM)
solubility ([4]; 0.5% polysorbate 80 in 0.1% phosphate buffer (pH 7)): 66.9 µg/mL (≈ 137 µM)
solubility ([4]; polysorbate 80 (4% aq. solution) in 0.1% phosphate buffer (pH 7)): 581 µg/mL (≈ 1190 µM)
dissolution (in words) ([4]; 0.5% aqueous sodium dodecylsulfate solution): dissolved extremely well
dissolution (in words) ([4]; 4% aqueous polysorbate solution): dissolved extremely well
dissolution (in words) ([4]; aqueous solution containing a water soluble polymer or cyclodextrin): did not dissolve
dissolution (in words) ([4]; aqueous surfactant solution): dissolved well
solubility in water (Solubility in water): less than 0.01 w/v%
dye-leakage ([1]; 10 mg/kg israpafant p.o. + 1 mg/kg mepyramine i.v. (oral concurrent group)): 10.1 µg/two eye balls
dye-leakage ([1]; 10 mg/kg israpafant p.o. once 1 hour before second challenge, control 34.5 µg): 25.3 µg/two eye balls
dye-leakage ([1]; 1.0% israpafant eye drop suspension, instillation 10 µl both eyes at 3, 2, 1 hour before second challenge, control 34.5 µg): 24.7 µg/two eye balls
dye-leakage ([1]; 1.0% israpafant instillation + 1 mg/kg mepyramine i.v. (concurrent instillation group)): 11.0 µg/two eye balls
total score of conjunctivitis signs [5]: significant decrease
suppressive effect on eosinophil infiltration (in words) ([2]; 10 mg/kg israpafant p.o. (oral group), 6 hours after second challenge): no suppressive effect; also recorded: no effect was found; also recorded: no effect was observed
suppressive effect on eosinophil infiltration (in words) ([2]; 10 mg/kg israpafant p.o. + 1 mg/kg mepyramine i.v. (concurrent oral administration group), almost the same as mepyramine alone): suppressive effect
suppressive effect on eosinophil infiltration (in words) ([2]; 1.0% israpafant instillation + 1 mg/kg mepyramine i.v. (concurrent instillation group), almost the same as mepyramine alone): suppressive effect
eosinophil infiltration count ([2]; 1.0% israpafant instillation, 6 hours after second challenge, control 95.3): 71.8 cell/0.04 mm^2
inhibition (rat PAF conjunctivitis; eye drop suspension 0.03% (dose 3 µg)): 19.1%
inhibition (rat PAF conjunctivitis; eye drop suspension 0.1% (dose 10 µg)): 29.6%
inhibition (rat PAF conjunctivitis; eye drop suspension 0.3% (dose 30 µg)): 41.6%
inhibition (rat PAF conjunctivitis; eye drop suspension 1.0% (dose 100 µg)): 53.2%
amount of dye leakage (rat PAF conjunctivitis; eye drop suspension 0.03% (dose 3 µg), saline 40.03±2.57): 32.29±3.31 µg/site
amount of dye leakage (rat PAF conjunctivitis; eye drop suspension 0.1% (dose 10 µg), p<0.01): 28.17±1.42 µg/site
amount of dye leakage (rat PAF conjunctivitis; eye drop suspension 0.3% (dose 30 µg), p<0.01): 23.37±2.56 µg/site
amount of dye leakage (rat PAF conjunctivitis; eye drop suspension 1.0% (dose 100 µg), p<0.01): 18.74±2.20 µg/site
